Tests used:
Assay in all cases: Holoreceptor transactivation assay
Type in all cases: cell-based
RXRγ = biological target: T1, RXRγ (Mus musculus, UniProt P28705); details: relative to all trans retinoic acid; read-out: Transactivation Assay Efficacy (% of RA activity) RXRγ
T1 construct: expressed in transfected cells; host or cells: CV1 cells
T1 sequence (P28705 1-463): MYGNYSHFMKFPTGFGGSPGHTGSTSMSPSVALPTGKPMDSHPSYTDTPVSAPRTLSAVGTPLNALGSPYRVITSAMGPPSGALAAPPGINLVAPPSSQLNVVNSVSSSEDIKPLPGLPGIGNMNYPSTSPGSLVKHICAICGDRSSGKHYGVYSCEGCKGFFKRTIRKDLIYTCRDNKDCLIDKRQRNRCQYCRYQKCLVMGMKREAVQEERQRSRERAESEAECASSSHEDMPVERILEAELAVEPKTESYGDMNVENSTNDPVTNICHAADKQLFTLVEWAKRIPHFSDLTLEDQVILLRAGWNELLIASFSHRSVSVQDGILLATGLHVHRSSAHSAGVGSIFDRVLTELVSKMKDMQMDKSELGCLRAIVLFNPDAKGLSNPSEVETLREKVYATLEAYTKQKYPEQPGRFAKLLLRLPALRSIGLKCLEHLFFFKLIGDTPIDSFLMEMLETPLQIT
From the text: (§1) A holoreceptor transactivation assay and a ligand binding assay which measure the antagonist/agonist like activity of the compounds of the invention, or their ability to bind to the several retinoid receptor subtypes, respectively, are described in published PCT Application No. WO93/11755 (particularly on pages 30-33 and 37-41) published on Jun. 24, 1993, the specification of which is also incorporated herein by reference. A description of the holoreceptor transactivation assay is also provided below.
(§2) CV1 cells (5,000 cells/well) were transfected with an RAR reporter plasmid MTV-TREp-LUC (50 ng) along with one of the RAR expression vectors (10 ng) in an automated 96-well format by the calcium phosphate procedure of Heyman et al. Cell 68: 397-406. For RXR-α and RXR-γ transactivation assays, an RXR-responsive reporter plasmid CRBPII-tk-LUC (50 ng) along with the appropriate RXR expression vectors (10 ng) was used substantially as described by Heyman et al. above, and Allegretto et al. J. Biol. Chem. 268: 26625-26633. For RXR-β transactivation assays, an RXR-responsive reporter plasmid CPRE-tk-LUC ([…]) along with RXR-β expression vector ([…]) was used as described in above. These reporters contain DRI elements from human CRBPII and certain DRI elements from promotor, respectively (see Mangelsdorf et al. The Retinoids: Biology Chemistry and Medicine, pp. 319-349, Raven Press Ltd., New York and Heyman et al., cited above). A β-galactosidase (50 ng) expression vector was used as an internal control in the transfections to normalize for variations in transfection efficiency. The cells were transfected in triplicate for 6 hours, followed by incubation with retinoids for 36 hours, and the extracts were assayed for luciferase and […] activities. The detailed experimental procedure for holoreceptor transactivations has been described in Heyman et al. above, and Allegretto et al. cited above. The results obtained in this assay are expressed in EC50 numbers, as they are also in the chimeric receptor transactivation assay. The Heyman et al. Cell 68: 397-406, Allegretto et al. J. Biol. Chem. 268: 26625-26633, and Mangelsdorf et al. The Retinoids: Biology, Chemistry, and Medicine, pp. 319-349, Raven Press Ltd., New York, are expressly incorporated herein by reference. The results of ligand binding assay are expressed in Kd numbers. (See Cheng et al. Biochemical Pharmacology 22: 3099-3108, expressly incorporated herein by reference.)

RXRβ = details: relative to all trans retinoic acid
From the text: as §1, §2

RXRα = biological target: T2, RXRα (Homo sapiens, UniProt P19793); details: relative to all trans retinoic acid; read-out: Transactivation Assay Efficacy (% of RA activity) RXRα
T2 construct: expressed in transfected cells; host or cells: CV1 cells
T2 sequence (P19793 1-462): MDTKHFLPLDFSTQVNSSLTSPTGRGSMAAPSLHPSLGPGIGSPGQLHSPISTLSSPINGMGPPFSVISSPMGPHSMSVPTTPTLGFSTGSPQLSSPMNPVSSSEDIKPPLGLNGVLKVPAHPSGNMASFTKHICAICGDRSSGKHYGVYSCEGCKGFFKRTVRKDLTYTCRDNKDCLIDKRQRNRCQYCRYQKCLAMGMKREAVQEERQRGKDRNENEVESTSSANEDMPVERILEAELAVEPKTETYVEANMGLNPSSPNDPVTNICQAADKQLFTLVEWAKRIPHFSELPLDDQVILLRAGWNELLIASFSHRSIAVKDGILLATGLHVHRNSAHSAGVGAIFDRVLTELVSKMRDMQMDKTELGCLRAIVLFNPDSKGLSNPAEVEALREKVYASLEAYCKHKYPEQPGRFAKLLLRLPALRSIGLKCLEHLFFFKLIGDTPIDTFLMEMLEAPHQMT
From the text: as §1, §2

Structure (SMILES) | Emax (RXRγ) [%] | Emax (RXRα) [%] | Transactivation Assay Efficacy (% of RA activity) RXRβ (RXRβ)
Cc1ccc(C2=CCC(C)(C)c3ccc(C#Cc4ccc(C(=O)O)cc4)cc32)cn1 [Compound 18, 4-[(5,6-Dihydro-5,5-dimethyl-8-(2-methyl-5-pyridyl)-2-naphthalenyl)ethynyl]benzoic acid] | 1 | 2 | 10.00 % of RA activity
CC1(C)CC=C(c2ccccn2)c2cc(C#Cc3ccc(C(=O)O)cc3)ccc21 [Compound 19, 4-[(5,6-Dihydro-5,5-dimethyl-8-(2-pyridyl)-2-naphthalenyl)ethynyl]benzoic acid] | 4 | 0 | 9.0 % of RA activity
Cc1cccc(C2=CCC(C)(C)c3ccc(C#Cc4ccc(C(=O)O)cc4)cc32)c1 [Compound 20, 4-[(5,6-Dihydro-5,5-dimethyl-8-(3-methylphenyl)-2-naphthalenyl)ethynyl]benzoic acid] | 3 | 4 | 0.00 % of RA activity
CCc1ccc(C2=CCC(C)(C)c3ccc(C#Cc4ccc(C(=O)O)cc4)cc32)cc1 [Compound 21, 4-[(5,6-Dihydro-5,5-dimethyl-8-(4-ethylphenyl)-2-naphthalenyl)ethynyl]benzoic acid] | 3 | 3 | 0.00 % of RA activity
COc1ccc(C2=CCC(C)(C)c3ccc(C#Cc4ccc(C(=O)O)cc4)cc32)cc1 [Compound 22, 4-[(5,6-Dihydro-5,5-dimethyl-8-(4-methoxyphenyl)-2-naphthalenyl)ethynyl]benzoic acid] | 2 | 1 | 0.00 % of RA activity
CC1(C)CC=C(c2ccc(C(F)(F)F)cc2)c2cc(C#Cc3ccc(C(=O)O)cc3)ccc21 [Compound 23, 4-[(5,6-Dihydro-5,5-dimethyl-8-(4-trifluoromethylphenyl)-2-naphthalenyl)ethynyl]benzoic acid] | 4 | 1 | 0.00 % of RA activity
Cc1cc(C)cc(C2=CCC(C)(C)c3ccc(C#Cc4ccc(C(=O)O)cc4)cc32)c1 [Compound 24, 4-[(5 6-Dihydro-5,5-dimethyl-8-(3,5-dimethylphenyl)-2-naphthalenyl)ethynyl]benzoic acid] | 3 | 1 | 0.00 % of RA activity
CC1(C)CC=C(c2ccc(Cl)cc2)c2cc(C#Cc3ccc(C(=O)O)cc3)ccc21 [Compound 25, 4-[(5,6-Dihydro-5,5-dimethyl-8-(4-chlorophenyl)-2-naphthalenyl)ethynyl]benzoic acid] | 3 | 5 | 0.00 % of RA activity
CC1(C)CC=C(c2cccnc2)c2cc(C#Cc3ccc(C(=O)O)cc3)ccc21 [Compound 26, 4-[(5,6-Dihydro-5,5-dimethyl-8-(3-pyridyl)-2-naphthalenyl)ethynyl]benzoic acid] | 3 | 2 | 0.00 % of RA activity
Cc1ccccc1C1=CCC(C)(C)c2ccc(C#Cc3ccc(C(=O)O)cc3)cc21 [Compound 27, 4-[(5,6-Dihydro-5,5-dimethyl-8-(2-methylphenyl)-2-naphthalenyl)ethynyl]benzoic acid] | 4 | 2 | 0.00 % of RA activity
CC1(C)CC=C(c2cccc(O)c2)c2cc(C#Cc3ccc(C(=O)O)cc3)ccc21 [Compound 28, 4-[(5,6-Dihydro5,5-dimethyl-8-(3-hydroxyphenyl)-2-naphthalenyl)ethynyl]benzoic acid] | 3 | 2 | 0.00 % of RA activity
CC1(C)CC=C(c2ccc(O)cc2)c2cc(C#Cc3ccc(C(=O)O)cc3)ccc21 [Compound 29, 4-[(5,6-Dihydro-5,5-dimethyl-8-(4-hydroxyphenyl)-2-naphthalenyl)ethynyl]benzoic acid] | 2 | 0 | 6.00 % of RA activity
Cc1cnc(C2=CCC(C)(C)c3ccc(C#Cc4ccc(C(=O)O)cc4)cc32)s1 [Compound 30, 4-[(5,6-Dihydro-5,5-dimethyl-8-(5-methylthiazol-2-yl)-2-naphthalenyl)ethynyl]benzoic acid] | 3 | 0 | 9.00 % of RA activity

Further lines, with some results ahead:

Emax (RXRγ) [%] | Emax (RXRα) [%] | Structure (SMILES) | Transactivation Assay Efficacy (% of RA activity) RXRβ (RXRβ)
6 | 1 | Cc1csc(C2=CCC(C)(C)c3ccc(C#Cc4ccc(C(=O)O)cc4)cc32)n1 [Compound 31, 4-[(5,6-Dihydro-5,5-dimethyl-8-(4-methylthiazol-2-yl)-2-naphthalenyl)ethynyl]benzoic acid] | 8.00 % of RA activity
2 | 1 | Cc1nc(C2=CCC(C)(C)c3ccc(C#Cc4ccc(C(=O)O)cc4)cc32)sc1C [Compound 32] | 0.00 % of RA activity
3 | 1 | Cc1ccc(C2=CCC(C)(C)c3ccc(C#Cc4ccc(C(=O)O)cc4)cc32)s1 [Compound 34, 4-[(5,6-Dihydro-5,5-dimethyl-8-(5-methyl-2-thienyl)-2-naphthalenyl)ethynyl]benzoic acid] | 0.00 % of RA activity
2 | 1 | Cc1ccc(C2=CCC(C)(C)c3ccc(C(=O)Nc4ccc(C(=O)O)cc4)cc32)cc1 [Compound 36, 4-[[(5,6-Dihydro-5,5-dimethyl-8-(4-methylphenyl)-2-naphthalenyl)carbonyl]amino]-benzoic acid] | 7.00 % of RA activity
1 | 2 | Cc1ccc(C2=CCC(C)(C)c3ccc(C(=O)Oc4ccc(C(=O)O)cc4)cc32)cc1 [Compound 39, 4-[[(5,6-Dihydro-5,5-dimethyl-8-(4-methylphenyl)-2-naphthalenyl)carbonyl]oxy]-benzoic acid] | 0.00 % of RA activity
3 | 1 | Cc1ccc(C2=CCC(C)(C)c3ccc(C(=O)Nc4ccc(C(=O)O)c(F)c4)cc32)cc1 [Compound 41, 2-Fluoro-4-[[(5,6-dihydro-5,5-dimethyl-8-(4methylphenyl)-2-naphthalenyl)carbonyl]amino]-benzoic acid] | 0.00 % of RA activity
0 | 3 | Cc1ccc(C2=CCC(C)(C)c3ccc(/C=C/c4ccc(C(=O)O)cc4)cc32)cc1 [Compound 45] | 8.00 % of RA activity

— US6469028B1, “Synthesis and use of retinoid compounds having negative hormone and/or anatgonist activities” (Allergan, Inc., priority 1995, dated 2002)
